The text below walks through data of patent US20220289679A1, “HETEROCYCLIC COMPOUND” (Takeda Pharmaceutical Company Limited, priority 2019, published 2022).

The test concerns the target T1, human GCS (glucosylceramide synthase) (Homo sapiens, UniProt Q16739).
T1 construct: made in house; host or cells: Expi293F cells (transient expression; microsome fraction)
T1 sequence (Q16739 1-394): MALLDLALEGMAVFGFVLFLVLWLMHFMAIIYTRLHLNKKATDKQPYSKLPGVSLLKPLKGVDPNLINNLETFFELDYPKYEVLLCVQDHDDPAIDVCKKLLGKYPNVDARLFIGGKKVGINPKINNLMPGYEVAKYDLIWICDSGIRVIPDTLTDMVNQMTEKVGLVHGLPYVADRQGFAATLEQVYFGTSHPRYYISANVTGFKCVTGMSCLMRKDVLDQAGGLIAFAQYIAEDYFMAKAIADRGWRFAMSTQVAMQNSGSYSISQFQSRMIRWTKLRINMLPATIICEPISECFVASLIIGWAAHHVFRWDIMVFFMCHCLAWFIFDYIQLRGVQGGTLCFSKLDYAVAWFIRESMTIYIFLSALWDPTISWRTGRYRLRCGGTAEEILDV
As to the kind of experiment: Glucosylceramide Synthase (GCS) Assay. The format is biochemical. As to conditions: test compound 10 μM; microsome fraction of Expi293F cells expressing human GCS; 1.7 μM UDP-glucose, 3 μM C8 ceramide; room temperature 60 min; C8 glucosylceramide by Rapidfire MS/MS; read-out: GCS enzyme inhibitory rate at 10 μM (%). An outline of the steps:
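Test compounds were run at a final 10 μM against liposomal C8 ceramide (3 μM) and UDP-glucose at its Km (1.7 μM). Human GCS came as microsomes from transfected Expi293F cells, incubated 60 min at room temperature, pH 7.5. Product measured by RapidFire MS/MS; 0% and 100% inhibition were DMSO and no-enzyme wells.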
As for `Cc1cc(C(=O)Nc2ccc(C(C)(C)O)cc2)c(=O)n(-c2ccc(F)cc2OCC(F)(F)F)c1` [Example 107, 1-[4-fluoro-2-(2,2,2-trifluoroethoxy)phenyl]-N-[4-(2-hydroxypropan-2-yl)phenyl]-5-methyl-2-oxo-1,2-dihydropyridine-3-carboxamide], the inhibition at 10 µM came out at 100%.
On to `CC(C)(O)Cn1cc(C(=O)Nc2ccc(OC(F)F)cc2)c(=O)c(-c2ccccc2OCC(F)F)n1` [Example 173, 6-[2-(2,2-difluoroethoxy)phenyl]-N-[4-(difluoromethoxy)phenyl]-2-(2-hydroxy-2-methylpropyl)-5-oxo-2,5-dihydropyridazine-4-carboxamide], for which the inhibition at 10 µM was 95%.
The same measure for `O=C(Nc1ccc(OCC2CC2)cc1)c1cccn(-c2ccc(F)cc2OCC(F)(F)F)c1=O` [Example 50, N-[4-(cyclopropylmethoxy)phenyl]-1-[4-fluoro-2-(2,2,2-trifluoroethoxy)phenyl]-2-oxo-1,2-dihydropyridine-3-carboxamide]: 100%; for `Cc1cc(C(=O)Nc2ccc(C(C)(C)O)cc2F)c(=O)n(-c2ccccc2OCC(F)F)n1` [Example 146, 2-[2-(2,2-difluoroethoxy)phenyl]-N-[2-fluoro-4-(2-hydroxypropan-2-yl)phenyl]-6-methyl-3-oxo-2,3-dihydropyridazine-4-carboxamide]: 100%; for `CC(C)(O)c1ccc(NC(=O)c2ccnn(-c3ccccc3OCC(F)(F)F)c2=O)nc1` [Example 128, N-[5-(2-hydroxypropan-2-yl)pyridin-2-yl]-3-oxo-2-[2-(2,2,2-trifluoroethoxy)phenyl]-2,3-dihydropyridazine-4-carboxamide]: 98%.
Consider `O=C(Nc1ccc(C(O)(C(F)F)C(F)F)cc1)c1cn(CC2COC2)nc(-c2ccccc2OCC(F)F)c1=O` [Example 175, 6-[2-(2,2-difluoroethoxy)phenyl]-2-[(oxetan-3-yl)methyl]-5-oxo-N-[4-(1,1,3,3-tetrafluoro-2-hydroxypropan-2-yl)phenyl]-2,5-dihydropyridazine-4-carboxamide], for which the inhibition at 10 µM came to 100%.
The same measure for `Cn1cc(C(=O)Nc2ccc(C(C)(C)O)cc2)c(=O)c(-c2ccccc2OCC(F)(F)F)n1` [Example 166, N-[4-(2-hydroxypropan-2-yl)phenyl]-2-methyl-5-oxo-6-[2-(2,2,2-trifluoroethoxy)pheny]-2,5-dihydropyridazine-4-carboxamide]: 100%; for `CC(C)(O)Cn1cc(C(=O)Nc2ccc(OCC(F)(F)F)cc2)c(=O)c(-c2ccccc2OCC(F)F)n1` [Example 168, 6-[2-(2,2-difluoroethoxy)phenyl]-2-(2-hydroxy-2-methylpropyl)-5-oxo-N-[4-(2,2,2-trifluoroethoxy)phenyl]-2,5-dihydropyridazine-4-carboxamide]: 96%.
For `O=C(Nc1ccc(OCC(F)(F)F)nc1)c1cccn(-c2ccccc2OCC(F)(F)F)c1=O` [Example 15, 2-oxo-1-[2-(2,2,2-trifluoroethoxy)phenyl]-N-[6-(2,2,2-trifluoroethoxy)pyridin-3-yl]-1,2-dihydropyridine-3-carboxamide] the value was 100%.
The same measure for `O=C(Nc1ccc(C2CCOC2)cc1)c1ccnn(-c2ccccc2OCC(F)F)c1=O` (racemic) [Example 145, rac-2-[2-(2,2-difluoroethoxy)phenyl]-3-oxo-N-[4-(oxolan-3-yl)phenyl]-2,3-dihydropyridazine-4-carboxamide]: 99%; for `O=C(Nc1ccc(Cl)cc1)c1cccn(-c2ccccc2OCC(F)(F)F)c1=O` [Example 14, N-(4-chlorophenyl)-2-oxo-1-[2-(2,2,2-trifluoroethoxy)phenyl]-1,2-dihydropyridine-3-carboxamide]: 99%.
With `COc1cc(F)ccc1-n1cccc(C(=O)Nc2ccc(C3CC3)nc2)c1=O` [Example 7, N-(6-cyclopropylpyridin-3-yl)-1-(4-fluoro-2-methoxyphenyl)-2-oxo-1,2-dihydropyridine-3-carboxamide], the inhibition at 10 µM stood at 57%.
